Measurements published in patent US6743618B2, “Thermostable proteolytic enzymes and uses thereof in peptide and protein synthesis” (University of Florida Research Foundation, Inc., priority 1996, dated 2004).
Non-standard residues stand in square brackets, D forms with d. Residues, ends and D or L forms follow the SMILES beside them. *: point of attachment. pNA = O=[N+]([O-])c1ccc(N*)cc1; Cbz = O=C(OCc1ccccc1)*; Bz = O=C(c1ccccc1)*

Key:
[1] = target: T1, P. furiosus protease (Pyrococcus furiosus, UniProt Q8U3Y3); assay: Hydrolysis kinetics of synthetic peptide and ester substrates (progress curve / initial velocity analysis); assay type: biochemical; details: for Ki: read-out: Ki (product inhibition constant)
T1 sequence (Q8U3Y3 entry or part of it): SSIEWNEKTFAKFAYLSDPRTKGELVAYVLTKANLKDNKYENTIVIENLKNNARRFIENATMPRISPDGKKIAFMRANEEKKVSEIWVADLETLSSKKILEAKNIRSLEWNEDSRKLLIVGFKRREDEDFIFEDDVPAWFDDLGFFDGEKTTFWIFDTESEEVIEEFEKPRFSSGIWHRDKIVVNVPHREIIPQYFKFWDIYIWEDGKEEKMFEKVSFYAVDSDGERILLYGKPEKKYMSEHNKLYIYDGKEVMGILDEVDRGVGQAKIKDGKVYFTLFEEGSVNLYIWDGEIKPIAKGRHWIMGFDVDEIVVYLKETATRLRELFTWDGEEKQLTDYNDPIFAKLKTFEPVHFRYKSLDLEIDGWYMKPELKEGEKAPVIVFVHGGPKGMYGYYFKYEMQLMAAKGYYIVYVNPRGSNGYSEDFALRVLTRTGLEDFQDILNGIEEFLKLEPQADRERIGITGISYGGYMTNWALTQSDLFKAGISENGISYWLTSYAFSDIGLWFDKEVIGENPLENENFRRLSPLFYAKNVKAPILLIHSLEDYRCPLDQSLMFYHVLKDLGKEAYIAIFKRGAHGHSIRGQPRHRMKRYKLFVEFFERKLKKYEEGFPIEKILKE
Excerpt: (§1) The hydrolysis kinetics of various synthetic peptide and ester protease substrates were studied. Two different methods have been used to analyze the kinetic properties of the enzyme. The first utilized initial velocity data at several substrate concentrations with analysis by plotting s/v νs s (Hanes plot). This method was always used when it was possible that the protease could cleave at more than one site (e.g., PPANA). The second method utilizes all data of the progress curve of the reaction. Progess curves were analyzed in two ways:
(§2) Instantaneous point by point derivatives were calculated from the absorbance νs time data by fitting 10 points spaced 1 second apart by least squares to a second degree polynomial. Derivatives were computed analytically and were used to construct plots of v νs s, which were then analyzed by non-linear regression to obtain Km, kcat and any product inhibition constant (Ki) if it exists. […] For all measurements at elevated temperature, the first-order rate constants for non-enzymic hydrolysis were determined for all substrates. The analytic method described here was used both for reactions at 25.0° C. and 80.0° C.
(§3) For these analyses, the integrated Michaelis-Menten equation was used, but not in linearized form, for reasons relating to product inhibition. Plots of time (now the dependent variable) νs absorbance were constructed from the raw data and analyzed by non-linear regression. […] This method was used for analyses at 25.0° C. only.
(§4) All kinetic studies utilized a Cary 3E double beam spectrophotometer and absorbance νs time data were collected by computer at 1 second intervals. In cases where a peptide substrate could potentially be cleaved at more than one site, thin-layer chromatography was used to establish the products formed (silica gel; butanol:acetone:NH4OH:water—37:37:19:7).
(§5) All of the above are mean values from at least 4 separate experiments. Except for PPANA, values are means of v νs s and integrated rate equation analyses. PPANA values were obtained from initial velocity measurements, analyzed by the Hanes equation. Solvent: 0.025 M Na Phosphate, pH 7.0. […] N. D. means not determined.

[2] = target: T1, P. furiosus protease; assay: Activation enthalpy and entropy from Arrhenius plots of initial velocities; assay type: biochemical
Method: For all kinetic experiments at high temperatures, sodium phosphate (0.025 M) was used as a buffer.
To explore the basis for the extremely large increases in enzyme activity with temperature, initial velocity (vo) measurements were made at 6 different substrate concentrations in order to determine kcat and Km at a series of temperatures in the range of 25.0 to 83.5° C. Temperature was controlled to within ±0.5° C. with a large water bath and jacketed cuvettes. Two substrates were used for these experiments—BAPNA and D-pro-phe-arg-pNA(PPANA).
Within the temperature range accessible to mesophilic enzymes, such plots are linear. […] The data was fitted to a second degree polynomial and the slopes determined as a function of temperature to compute Arrhenius activation energies. These values were used to compute activation enthalpy (ΔH*) and entrophy (ΔS*) as a function of temperature (Eyring, H. (1963) Modern Chemical Kinetics, Rheinhold, N.Y.).

[3] = test system: trypsin; assay: BAPNA hydrolysis by trypsin (comparison); assay type: biochemical; details: BAPNA as substrate, same conditions (25.0 °C)
[4] = test system: Pyrococcus furiosus serine protease, native, about 81 kDa, N-terminus SEQ ID NO: 1; assay: Active site inhibitor studies (BAPNA as substrate); assay type: biochemical; details: 10^−3 M, incubation for 24 hr
Method: (§6) To assign the class of protease to which the P. furiosus protease belongs, several reagents were used to identify catalytically important residues.
a. Incubation of the enzyme with 10^−3 M EDTA for 24 hr had no effect upon enzyme activity.
b. One of the active-site inhibitors of mesophilic serine proteases is phe-pro-argCH2Cl. This reagent reacts rapidly and specifically with the active site histidine residue of the active site triad: ser-his-asp (Shaw, E. “Site-Specific Reagents for Chymotrypsin and Trypsin.” […]. 11:677-686, 1967).

[5] = target: T1, P. furiosus protease; assay: Active site inhibitor studies, BAPNA as substrate; assay type: biochemical
Excerpt: as §6
b. […] This reagent reacts rapidly and specifically with the active site histidine residue of the active site triad: ser-his-asp (Shaw, E. “Site-Specific Reagents for Chymotrypsin and Trypsin.” […]. 11:677-686, 1967).

[6] = test system: Pyrococcus furiosus serine protease (carboxypeptidase/endopeptidase), native, about 81 kDa, N-terminus SEQ ID NO: 1; assay: Kinetic studies and substrate specificity (hydrolysis of synthetic peptide and ester substrates; progress curves, Hanes plot); assay type: biochemical; details: for Km / kcat: 0.025 M Na phosphate, pH 7.0, mean of at least 4 experiments (PPANA: initial velocities, Hanes equation); for product inhibition, Ki compared with Km / hydrolysis by the protease: in words; for hydrolysis by the protease: at up to 80° C. for arg-pNA (TLC), Table 3 lists HA and ZGP at 25.0° C.
Excerpt: as §1, §2
b. Integrated Rate Equation Analyses: t νs Absorbance
as §3
Subroutines for the above analyses were written to analyze the kinetic data for: product competitive inhibition, non-competitive inhibition, 2-product inhibition, and simple Michaelis-Menten kinetics. An HP 9000 series work station was used for this purpose, using HP BASIC.
as §4, §5

[7] = pK values used to calculate theoretical yield; assay type: physicochemical; details: for pK1: carboxyl reactant; for pK2: amine nucleophile
Method: Yield is defined as the ratio of product concentration to the initial concentration of the carboxyl reactant (in percent). Theoretical yield was calculated from equations 1, 2 and 3 together with pK1=3.81 (ZGL) and 4.47 (ZGE); pK2=7.93 (leu-NH2) and 7.51 (arg-NH2).

[8] = target: T1, P. furiosus protease; assay: Product inhibition: initial rate measurements of BAPNA with varying product concentrations; assay type: biochemical
[9] = test system: serine protease of the subject invention; assay: Digestion of insulin B-chain, products by TLC; assay type: biochemical, Pyrococcus furiosus; details: 80° C., phosphate buffer, pH 7.0, 1 hour
Method: Treatment of the insulin B-chain with the serine protease of the subject invention (80° C., phosphate buffer, pH 7.0) for 1 hour yields 5 ninhydrin-positive components by TLC. No non-enzyme hydrolysis of substrate was detected after this time period. One of the new components is alanine which the carboxy terminus of the B-chain. None of the others is a free amino acid. These studies with insulin provide further evidence that the enzyme is an endopeptidase.

[10] = 25.0 °C, 0.025 M Na phosphate, pH 7.0, total progress curve analyses
[11] = 25.0 °C, BAPNA substrate, sodium phosphate 0.025 M pH 7.0, iodoacetamide 100-fold molar excess

With `N=C(N)NCCC[C@H](NC(=O)c1ccccc1)C(=O)Nc1ccc([N+](=O)[O-])cc1` [BAPNA, N-benzoyl-L-arginine-p-nitroanilide] the “Ki compared with Km” value ([1]; 25.0 °C) was “Ki<Km”, the “Ki times less than Km” value ([1]; 25.0 °C, Table 3) was 10 and the Ki [1, 10] was 70.8 µM. For the same compound, the “kcat at 80° C. relative to 25° C. (times greater)” value ([1]; 80 °C vs 25 °C) was 65, the Ki ([1]; 80.0 °C, 0.025 M Na phosphate, pH 7.0, progress curve analysis) was 220 µM and the “ΔH* (activation enthalpy)” value ([2]; 25.0 °C) was 17.2 kcal/mol. For the same compound, the “ΔS* (activation entropy)” value ([2]; 25.0 °C) was 2.2 e.u, the “ΔH* (activation enthalpy)” value ([2]; 80.0 °C) was 3.1 kcal/mol and the “ΔS* (activation entropy)” value ([2]; 80.0 °C) was −41.7 e.u. For the same compound, the kcat [3] was 2.7 s⁻¹.

Compound `CCOC(=O)[C@H](Cc1ccc(O)cc1)NC(=O)c1ccccc1` [BTEE, benzoyl-tyrosine ethyl ester] has a Ki [1, 10] of 5600 µM.

In the case of `O=C(O)CN(CCN(CC(=O)O)CC(=O)O)CC(=O)O` [EDTA], the “effect upon enzyme activity” value [4] is reported as “no effect” and the “effect upon enzyme activity” value [5] is reported as “no effect”.

With `C[C@H](NC(=O)/C=C/c1ccco1)C(=O)N[C@@H](Cc1ccccc1)C(N)=O` [FAAPA, furyl-acryloyl-ala-phe-amide] the Km ([6]; 25.0° C.) was 38.6 µM, the kcat ([6]; 25.0° C.) was 7.31 s⁻¹ and the “product inhibition, Ki compared with Km” value [6] was “Ki<Km”.

With `CC(C)C[C@H](NC(=O)CNC(=O)/C=C/c1ccco1)C(N)=O` [FAGLA, furyl-acryloyl-glycyl-leucine amide] the “Ki compared with Km” value ([1]; 25.0 °C) was “Ki<Km”, the product inhibition ([1]; 25.0 °C) was “intense product inhibition” and the Km ([1]; 25.0 °C, 0.025 M Na phosphate, pH 7.0, PPANA from initial velocities (Hanes)) was 6.08 µM. For the same compound, the kcat ([1]; 25.0 °C, 0.025 M Na phosphate, pH 7.0, means of at least 4 experiments, PPANA from initial velocities (Hanes)) was 0.67 s⁻¹.

With `O=C(O)CNC(=O)CNC(=O)[C@H](Cc1ccccc1)NC(=O)/C=C/c1ccco1` [FAPGG, furyl-acryloyl-phe-gly-gly] the Km ([6]; 25.0° C.) was 415 µM, the kcat ([6]; 25.0° C.) was 10.64 s⁻¹ and the “product inhibition, Ki compared with Km” value [6] was “No product inhibition is observed”.

With `O=C(/C=C/c1ccco1)N[C@@H](Cc1ccccc1)C(=O)N[C@@H](Cc1ccccc1)C(=O)O` [FAPP, furyl-acryloyl-phe-phe] the Km ([6]; 25.0° C.) was 375 µM, the kcat ([6]; 25.0° C.) was 4.58 s⁻¹ and the “product inhibition, Ki compared with Km” value [6] was “product inhibition is not observed”.

With `N=C(N)NCCC[C@H](NC(=O)CNC(=O)c1ccccc1)C(=O)O` [HA, hippuryl-arginine] (Bz-Gly-Arg-OH) the “hydrolysis by the enzyme” value ([1]; 25.0 °C) was “Remain Unaltered” and the “hydrolysis by the protease” value [6] was “Remain Unaltered by the Enzyme”.

With `O=S(=O)(F)Cc1ccccc1` [PMSF, phenyl-methyl-sulfonyl fluoride] the “inhibition of enzyme activity” value ([5]; 8×10^3 molar excess over enzyme, BAPNA substrate, 25.0 °C) was “complete inhibition”.

With `N=C(N)NCCC[C@H](NC(=O)[C@H](Cc1ccccc1)NC(=O)[C@H]1CCCN1)C(=O)Nc1ccc([N+](=O)[O-])cc1` [PPANA, D-pro-phe-arg-pNA] (H-[dP]-Phe-Arg-pNA) the Km ([6]; 25.0° C.) was 477 µM, the kcat ([6]; 25.0° C.) was “.045 s⁻¹” and the Km ([6]; 80.0° C.) was 499 µM. The kcat ([6]; 80.0° C.) was 5.44 s⁻¹, the “kcat ratio 80° C./25° C.” value ([6]; kcat at 80° C. vs 25° C.) was 120 times and the “ΔH* (activation enthalpy)” value ([2]; 25.0 °C) was 26.1 kcal/mol. For the same compound, the “ΔS* (activation entropy)” value ([2]; 25.0 °C) was 23.8 e.u, the “ΔH* (activation enthalpy)” value ([2]; 80.0 °C) was 15.4 kcal/mol and the “ΔS* (activation entropy)” value ([2]; 80.0 °C) was −9.0 e.u.

Work on `O=C(O)CC[C@H](NC(=O)CNC(=O)OCc1ccccc1)C(=O)O` [ZGE, Z-gly-glu] (Cbz-Gly-Glu-OH) yielded a pK1 [7] of 4.47.

Compound `CC(C)CC(NC(=O)CNC(=O)OCc1ccccc1)C(=O)O` (centres unmarked) [ZGL, Z-gly-leu] has a pK1 [7] of 3.81.

In the case of `O=C(CNC(=O)OCc1ccccc1)N[C@@H](Cc1ccccc1)C(=O)O` [ZGP, carbobenzoxy-gly-phe] (Cbz-Gly-Phe-OH), the “hydrolysis by the enzyme” value ([1]; 25.0 °C) is reported as “Remain Unaltered” and the “hydrolysis by the protease” value [6] is reported as “Remain Unaltered by the Enzyme”.

For `CC(NC(=O)C(Cc1ccccc1)NC(=O)OCc1ccccc1)C(=O)O` (centres unmarked) [ZPA, carbobenzoxy-phe-ala], the “Ki compared with Km” value ([1]; 25.0 °C) was “Ki<Km” and the Ki [1, 10] was 134 µM.

Work on `NC(=O)[C@@H](N)CCCN=C(N)N` [arg-NH2] yielded a pK2 [7] of 7.51.

For `N=C(N)NCCC[C@H](N)C(=O)Nc1ccc([N+](=O)[O-])cc1` [arg-pNA], the “hydrolysis by the protease (TLC)” value ([1]; even at 80° C.) was “does not hydrolyze” and the “hydrolysis by the protease” value [6] was “does not hydrolyze arg-pNA at all, even at 80 °C”.

`N=C(N)NCCC[C@H](NC(=O)c1ccccc1)C(=O)O` [benzoyl-L-arginine] showed a Ki [1, 10] of 70.8 µM and a Ki ([8]; initial rate measurements of BAPNA with varying product concentration, read-out: Ki (inhibition constant of added product)) of 65 µM.

With `O=C(O)c1cc(SSc2ccc([N+](=O)[O-])c(C(=O)O)c2)ccc1[N+](=O)[O-]` [bisdithiodintrobenzene] the “effect upon the activity of the enzyme” value [5, 11] was “no effect whatsoever”.

With `NC(=O)CI` [iodoacetamide] the “effect upon the activity of the enzyme” value [5, 11] was “no effect whatsoever”.

`CC(C)C[C@H](N)C(N)=O` [leu-NH2] gave a pK2 [7] of 7.93.

In the case of `Nc1ccc([N+](=O)[O-])cc1` [p-nitroaniline], the “inhibition by added product” value ([8]; concentrations as high as 5×10^−4 M, initial rates of BAPNA) is reported as “no detectable inhibition”.

For `N=C(N)NCCC[C@H](NC(=O)[C@@H]1CCCN1C(=O)[C@H](N)Cc1ccccc1)C(=O)CCl` [phe-pro-argCH2Cl], the “pseudo first order inactivation rate constant” value ([5]; inhibitor 1.98×10^−6 M, BAPNA 3.8×10^−4 M, 25.0 °C) was 0.022 s⁻¹.

With `O=P(O)(O)O` [sodium phosphate] the “effect upon the activity of the enzyme” value ([5]; pH 7) was “no effect whatsoever”.

For “insulin B-chain: insulin B-chain, used as a substrate; its carboxy terminus is alanine”, the “ninhydrin-positive components by TLC” value [9] was 5.
